Results published in publication PMC9505538, “P-Glycoprotein (MDR1/ABCB1) Restricts Brain Accumulation of the Novel EGFR Inhibitor EAI045 and Oral Elacridar Coadministration Enhances Its Brain Accumulation and Oral Exposure” (Pharmaceuticals, 2022).
“And” between values parts separate entries of the source, which are not always exact repeats. Equal values may be shown once.

What was measured:
[1] = 30-min pharmacokinetic experiment with oral elacridar coadministration in WT mice
Description: Considering the potential therapeutic benefit of increasing EAI045 brain penetration, and possibly also plasma exposure, we investigated to what extent elacridar, a dual ABCB1 and ABCG2 inhibitor, could increase the brain penetration and oral exposure of EAI045. We performed a 30-min pharmacokinetic experiment with an EAI045 dose of 20 mg/kg, and elacridar at 50 mg/kg. As elacridar plasma concentration peaks around 3–4 h after oral administration, elacridar was administered orally 3 h prior to oral EAI045 administration to male WT mice. Plasma and tissue EAI045 levels were determined 30 min later.
Mice (Mus musculus) were bred in the Netherlands Cancer Institute and housed and handled according to institutional guidelines complying with Dutch and EU legislation. Animals used were WT, Abcb1a/1b^-/- [39], Abcg2^-/- [40], Abcb1a/1b;Abcg2^-/- [41], Cyp3a^-/- [42], and Oatp1a/1b^-/- [43] mice of a >99% FVB/N strain background. Homozygous CYP3A4 humanized transgenic mice (Cyp3aXAV) were generated by cross-breeding of transgenic mice with stable human CYP3A4 expression in the liver or intestine, respectively, in a Cyp3a^-/- background. Proper functionality of the knockout and transgenic strains was monitored by regular testing with a variety of drug substrates. All the mice used were between 10 and 15 weeks of age. Animals were kept in a temperature-controlled environment with a 12 h light/12 h dark cycle and received a standard diet (Transbreed, SDS Diets, Technilab-BMI, The Netherlands) and acidified water ad libitum. Depending on the type of experiment, 5 or 6 mice were tested in each experimental group. All experimental animal protocols, including power calculations, were ethically assessed and designed under the nationally approved DEC/CCD project AVD301002016595 (approval date, 10 August 2016) and evaluated and approved by the institutional animal care and use committee (IACUC) of the Netherlands Cancer Institute.
EAI045 was dissolved in dimethyl sulfoxide (DMSO) at a concentration of […], and then diluted with a mixture of polysorbate 80/ethanol (1:1, v/v), and further diluted with 5% (w/v) glucose in water to yield a concentration of 2 mg/mL. Final concentrations for DMSO, polysorbate 80, ethanol, and glucose in the dosing solution were 5%, 2.5%, 2.5%, and 4.5% (v/v/v/w), respectively. Elacridar hydrochloride was dissolved in DMSO at a concentration of 53 mg/mL, then diluted with a mixture of polysorbate 80, ethanol, and water [20:13:67, (v/v/v)] to yield a concentration of 5 mg/mL elacridar. The final oral dose of elacridar was 50 mg/kg body weight. All dosing solutions were prepared freshly on the day of experiment.
To minimize variation in absorption, mice were fasted for about 3 h before EAI045 was administered by gavage into the stomach (n = 5–6), using a blunt-ended needle. EAI045 was administered orally at dose of 20 mg/kg. Elacridar was administered orally at a dose of 50 mg/kg, 3 h prior to oral EAI045 administration. For the 24- or 4-h experiments, tail vein blood samplings were performed at 5 min, 30 min, 1, 2, 4, and 8 h, or 5 min, 15 min, 30 min, 1, and 2 h time points after oral administration of EAI045, respectively, using microvettes containing heparin. For the 30 min experiments, blood samplings were performed at 5, 10, and 20 min from the tail vein. At the last time point (24 h, 4 h, or 30 min), mice were anesthetized with isoflurane and blood was collected by cardiac puncture. Then, mice were sacrificed by cervical dislocation and brain, liver, spleen, kidneys, lung, small intestine with content (SIWC), and testis were rapidly removed and weighed. Tissues were homogenized on ice in appropriate volumes of 2% (w/v) BSA. Blood samples were centrifuged at 9000× g for 6 min at 4 °C immediately after collection.

[2] = 24 h pharmacokinetic pilot experiment in WT, Cyp3a-/- and Cyp3aXAV mice; type: in vivo, mice (Mus musculus)
Description: To determine whether EAI045 and CYP3A interact in vivo, we carried out a 24 h pharmacokinetic pilot experiment using oral EAI045 at 20 mg/kg in female WT, Cyp3a knockout (Cyp3a^-/-), and transgenic Cyp3aXAV mice (these are humanized Cyp3a^-/- mice that express the human CYP3A4 in liver and small intestine). The plasma exposure and tissue distribution of EAI045 and PIA were measured. The tmax in all strains was around 5–30 min. […] In contrast, relative to Cyp3a^-/- or WT mice, the AUC0–30min and Cmax were not changed in Cyp3aXAV mice (Supplemental Figure S8A–C). Similar results were obtained for PIA (Supplemental Figure S8D–F). While not plotted separately, the PIA/EAI045 AUC ratios were also hardly changed between the three mouse strains.
All samples were stored at −30 °C until analysis.
Differences were considered statistically significant when p < 0.05. Data are presented as mean ± SD.

[3] = WT + elacridar compared to Abcb1a/1b;Abcg2-/- mice, 30 min
[4] = male WT mice + elacridar, EAI045 20 mg/kg oral, 30 min
[5] = male WT mice + elacridar, EAI045 20 mg/kg oral, plasma

plasma AUC0–30min, fold increase ([1]; WT + elacridar compared to Abcb1a/1b;Abcg2-/- mice): 2.4 fold
SIWC%, fold decrease [1, 3]: 3.5 fold
SIWC%-to-plasma ratio, fold decrease [1, 3]: 8.6 fold
Fold change Cbrain ([1]; WT + elacridar vs WT, 30 min): 17 fold and 17.0 fold
Fold change Ctestis ([1]; WT + elacridar vs WT, 30 min): 8.7 fold
Fold change Kp.SIWC% ([1]; WT + elacridar vs WT, 30 min): 0.032 fold
Fold change Kp.brain ([1]; WT + elacridar vs WT, 30 min): 5.4 fold
Fold change Kp.testis ([1]; WT + elacridar vs WT, 30 min): 2.6 fold
Fold change SIWC% ([1]; WT + elacridar vs WT, 30 min): 0.13 fold
Kp.SIWC% (SIWC%-to-plasma ratio), fold decrease ([1]; WT + elacridar vs WT, 30 min): 30.8 fold
SIWC%, fold decrease ([1]; WT + elacridar vs WT, 30 min): 7.5 fold
Fold change AUC ([1]; WT + elacridar vs WT, plasma AUC0–30min, EAI045 20 mg/kg oral, 20 mg/kg): 4 fold and 4.0 fold
Plasma AUC0–30min ([1]; male WT mice + elacridar 50 mg/kg oral 3 h before, EAI045 20 mg/kg oral): 549 ± 82 ***^. +++ h*ng/mL
Cbrain (brain concentration) [1, 4]: 395.9 ± 123.1 ***^. +++ ng/g
Ctestis (testis concentration) [1, 4]: 198.7 ± 58.9 ***^. +++ ng/g
Kp.SIWC% (SIWC%-to-plasma ratio) [1, 4]: 5.13 ± 2.63
Kp.brain (brain-to-plasma ratio) [1, 4]: 0.560 ± 0.200
Kp.testis (testis-to-plasma ratio) [1, 4]: 0.280 ± 0.096
SIWC% (drug percentage of dose in small intestine with content) [1, 4]: 4.00 ± 2.57 %
Cmax [1, 5]: 1512 ± 260 ng/mL
tmax [1, 5]: 10 to 30 min
plasma exposure of EAI045 over 30 min (AUC0–30min), fold lower ([2]; Cyp3a-/- mice than WT mice, 20 mg/kg oral): 1.6 fold
AUC0–30min and Cmax ([2]; Cyp3aXAV mice relative to Cyp3a-/- or WT mice, 20 mg/kg oral): not changed
tmax ([2]; female WT, Cyp3a-/- and Cyp3aXAV mice (all strains), EAI045 20 mg/kg oral): 5 to 30 min
SMILES: O=C(Nc1nccs1)C(c1cc(F)ccc1O)N1Cc2ccccc2C1=O (stereo not drawn) [EAI045]
